# Test results from the NIST ThermoML archive (doi:10.1016/j.fluid.2014.11.020).
# ± gives the expanded uncertainty stated by the source.
# Assay: activity coefficient (dimensionless); of the first substance listed, at infinite dilution; xn = mol fraction of the nth substance listed
# Conditions: Liquid, Chromatography, x1 = 0
SMILES,activity coefficient (323.15 K),activity coefficient (333.15 K),activity coefficient (343.15 K)
c1ccncc1 [pyridine] + CCCOC[n+]1ccn(Cc2ccccc2)c1.N#C[N-]C#N,0.67 ± 0.05,0.69 ± 0.05,0.71 ± 0.05
C[N+](=O)[O-] [nitromethane] + CCCOC[n+]1ccn(Cc2ccccc2)c1.F[B-](F)(F)F,0.58 ± 0.04,0.57 ± 0.04,0.58 ± 0.04
CCCC(C)=O [pentan-2-one] + CCCOC[n+]1ccc(N(C)C)cc1.O=S(=O)([N-]S(=O)(=O)C(F)(F)F)C(F)(F)F,0.75 ± 0.05,0.78 ± 0.05,0.78 ± 0.05
CCC(C)CC [3-methylpentane] + CCCOC[n+]1ccc(N(C)C)cc1.O=S(=O)([N-]S(=O)(=O)C(F)(F)F)C(F)(F)F,9.61 ± 0.66,9.48 ± 0.65,9.24 ± 0.63
CC#N [acetonitrile] + N#C[N-]C#N.N#C[N-]C#N.c1ccc(Cn2cc[n+](COCCCOC[n+]3ccn(Cc4ccccc4)c3)c2)cc1,0.99 ± 0.06,0.97 ± 0.06,0.98 ± 0.06
CCCCCCC [heptane] + CCCOC[n+]1ccc(N(C)C)cc1.O=S(=O)([N-]S(=O)(=O)C(F)(F)F)C(F)(F)F,15.8 ± 1.1,14.8 ± 1,13.9 ± 0.95
CC(C)CO [2-methyl-1-propanol] + Cn1cc[n+](COCCCOC[n+]2ccn(C)c2)c1.O=S(=O)([N-]S(=O)(=O)C(F)(F)F)C(F)(F)F.O=S(=O)([N-]S(=O)(=O)C(F)(F)F)C(F)(F)F,1.87 ± 0.13,1.71 ± 0.11,1.5 ± 0.1
CO [methanol] + CCCOC[n+]1ccn(Cc2ccccc2)c1.N#C[N-]C#N,0.39 ± 0.03,0.4 ± 0.03,0.4 ± 0.03
C=CCCCC [hex-1-ene] + CCCOC[n+]1ccn(C)c1.N#C[N-]C#N,28 ± 1.9,–,–
ClC(Cl)(Cl)Cl [tetrachloromethane] + CCCCCCCCn1cc[n+](COCCC)c1C.N#C[N-]C#N,1.21 ± 0.08,1.23 ± 0.08,1.24 ± 0.08
CCCO [propan-1-ol] + CCCCCCCCn1cc[n+](COCCC)c1C.N#C[N-]C#N,0.4 ± 0.03,0.4 ± 0.03,0.39 ± 0.03
ClC(Cl)Cl [trichloromethane] + CCCOC[n+]1ccn(Cc2ccccc2)c1.F[B-](F)(F)F,1.16 ± 0.07,1.15 ± 0.07,1.2 ± 0.08
ClC(Cl)Cl [trichloromethane] + N#C[N-]C#N.N#C[N-]C#N.c1ccc(Cn2cc[n+](COCCCOC[n+]3ccn(Cc4ccccc4)c3)c2)cc1,1.22 ± 0.08,1.2 ± 0.08,1.33 ± 0.09
"Cc1cccc(C)c1 [1,3-dimethylbenzene] + CN(C)c1cc[n+](COCCCOC[n+]2ccc(N(C)C)cc2)cc1.O=S(=O)([N-]S(=O)(=O)C(F)(F)F)C(F)(F)F.O=S(=O)([N-]S(=O)(=O)C(F)(F)F)C(F)(F)F",1.36 ± 0.09,1.38 ± 0.09,1.4 ± 0.09
C#CCCCCC [1-heptyne] + CCCOC[n+]1ccn(C)c1.N#C[N-]C#N,10.9 ± 0.74,10.9 ± 0.74,10.7 ± 0.73
CCCCCCCCCC [decane] + CCCOC[n+]1ccn(Cc2ccccc2)c1.O=S(=O)([N-]S(=O)(=O)C(F)(F)F)C(F)(F)F,28.8 ± 2,23.2 ± 1.6,21.1 ± 1.4
CC(C)O [propan-2-ol] + N#C[N-]C#N.N#C[N-]C#N.c1ccc(Cn2cc[n+](COCCCOC[n+]3ccn(Cc4ccccc4)c3)c2)cc1,1.57 ± 0.1,1.45 ± 0.1,1.39 ± 0.09
C=CCCCC [hex-1-ene] + CCCCCCCCn1cc[n+](COCCC)c1C.O=S(=O)([N-]S(=O)(=O)C(F)(F)F)C(F)(F)F,2.65 ± 0.18,2.38 ± 0.16,2.47 ± 0.17
